According to patent US20020142940A1, “Method of inhibiting viral infection using HMG-COA reductase inhibitors and isoprenylation inhibitors” (priority 2000, published 2002):
“And” between values parts separate entries of the source, which are not always exact repeats. Equal values may be shown once. “Also recorded” adds a separate entry of the source.

Assays:
HPIV-3 [1] = test: HPIV-3 syncytia formation in HEp-2 cells; type: cell-based; conditions: for rescue of lovastatin inhibition of HPIV-3 syncytia formation: added to lovastatin treated cells
HPIV-3 [2] = test: HPIV-3 replication in HEp-2 cells, plaque assay; type: cell-based; conditions: for reduction of HPIV-3 replication: 5 μM, 24 hrs treatment, MOI 0.1, titer 2 days after infection; for rescue of lovastatin inhibition of HPIV-3 replication: added to 10 μM lovastatin treated cells, 50 μM GGP, mevalonolactone or FP, cholesterol concentration not given
RSV [3] = test: RSV replication in mice, lung plaque assay; type: in vivo; conditions: for peak RSV titer in the lung: mice, oral gavage beginning three days prior to infection, 1 mg/day lovastatin or 50 mg/day gemfibrozil, lungs day 4
vaccinia virus = type: in vivo, mice; conditions: 1 mg/day lovastatin or 50 mg/day gemfibrozil oral gavage beginning three days prior to infection, vs PBS
RSV [4] = test: RSV-induced weight loss and illness in mice; type: in vivo; conditions: for peak percent weight loss on day 8 post infection: comparison PBS, gemfibrozil, lovastatin treated RSV-infected mice
[5] = Weight loss in uninfected treated mice; type: in vivo; conditions: 1 mg/day lovastatin or 50 mg/day gemfibrozil for 11 days
RSV [6] = test: RSV replication in HEp-2 cell culture, plaque assay; type: cell-based
Procedure: FIG. 5—Lovastatin eliminates RSV replication in cell culture. HEp-2 cell monolayers grown in 96 well plates were treated with either 10 μM lovastatin or left untreated beginning 24 hr prior to RSV infection (moi 0.1). Virus titer was measured for 8 consecutive days after RSV infection daily by plaque assay for eight days post RSV infection by harvesting the entire contents of a well and performing plaque assays in triplicate. RSV growth curve in untreated cells (□) and in cells treated with 10 μM lovastatin ( ? ). Error bars represent standard deviation.
Virus and Cells. The A2 strain of RSV was provided by Dr. R. Chanock, NIH, Bethesda, Md. RSV stocks were prepared as previously described (Graham et al., 1988). HEp-2 cells were maintained in Eagle's minimal essential media supplemented with glutamine, gentamicin, penicillin G, and 10% fetal bovine serum (FBS).
Plaque assay. Two-day-old HEp-2 monolayers, 80% confluent in 12-well plates (Costar, Cambridge, Mass.) were used for plaque assay. The assay was done as previously described (Graham et al., 1988).
Lovastatin eliminates RSV replication in HEp-2 cells. Next, the inventors asked whether lovastatin could alter RSV replication in cell culture. HEp-2 cells in a 96-well plate were treated with either 10 μM lovastatin or left untreated beginning 24 hr prior to RSV infection. […]

[7] = test system: RSV glycoproteins F, G and SH; type: cell-based
HIV-1 = conditions: human H9 lymphocytic cell line, early stages of infection; cited from earlier work
HIV = conditions: cultured MT-2 cells; reported in U.S. Ser. No. 09/129,565; cited from earlier work
[8] = 5 μM, beginning 24 hr prior to infection, MOI 0.1, two days post infection
[9] = 10 μM lovastatin beginning 24 hr prior to infection, MOI 0.1

COC(=O)[C@H](CCSC)NC(=O)c1ccc(NC[C@@H](N)CS)cc1-c1ccccc1 [FTI-277]
HPIV-3-induced syncytia formation (HPIV-3 [1]; [8]): does not inhibit | reduction of HPIV-3 replication (HPIV-3 [2]): 10 fold

COC(=O)[C@H](CC(C)C)NC(=O)c1ccc(NC[C@@H](N)CS)cc1-c1cccc2ccccc12 [GGTI-298]
HPIV-3-induced syncytia formation (HPIV-3 [1]; [8]): blocked | reduction of HPIV-3 replication (HPIV-3 [2]): 100 fold

CC(C)CCC[C@@H](C)[C@H]1CC[C@H]2[C@@H]3CC=C4C[C@@H](O)CC[C@]4(C)[C@H]3CC[C@]12C [cholesterol]
rescue of lovastatin inhibition of HPIV-3 replication (HPIV-3 [2]): cannot rescue the inhibition

CC(C)=CCC/C(C)=C/CC/C(C)=C/COP(=O)(O)OP(=O)(O)O [farnesylpyrophosphate]
rescue of lovastatin inhibition of HPIV-3 syncytia formation (HPIV-3 [1]): does not rescue the inhibition | rescue of lovastatin inhibition of HPIV-3 replication (HPIV-3 [2]): partially restores

Cc1ccc(C)c(OCCCC(C)(C)C(=O)O)c1 [gemfibrozil]
inhibition of RSV replication in mice (RSV [3]; 50 mg/day gemfibrozil oral gavage (FIG. 1)): does not inhibit RSV replication | peak RSV titer in the lung (RSV [3]): 6.5+/−0.43 log10 pfu/gm | effect on vaccinia replication (vaccinia virus): not effected | peak percent weight loss on day 8 post infection (RSV [4]): 40% | weight loss in uninfected mice [5]: no significant weight loss

CC(C)=CCC/C(C)=C/CC/C(C)=C/CC/C(C)=C/COP(=O)(O)OP(=O)(O)O [geranylgeranylpyrophosphate]
rescue of lovastatin inhibition of HPIV-3 syncytia formation (HPIV-3 [1]): rescues the inhibition | rescue of lovastatin inhibition of HPIV-3 replication (HPIV-3 [2]): rescues the inhibition

CC[C@H](C)C(=O)O[C@H]1C[C@@H](C)C=C2C=C[C@H](C)[C@H](CC[C@@H]3C[C@@H](O)CC(=O)O3)[C@H]21 [lovastatin]
reduction in RSV viral titer (RSV [3]; 1 mg/day lovastatin beginning 1 day after RSV infection): 10 fold | reduction in RSV viral titer compared to untreated mice (RSV [3]; 1 mg/day lovastatin beginning 3 days after infection): no reduction | RSV viral titer in the lung on day 4 (RSV [3]; 1 mg/day lovastatin beginning 3 days prior to infection): 3.8+/−0.48 log10 pfu/gm | reduction in RSV viral titer in lung compared to untreated mice (RSV [3]; 1 mg/day lovastatin beginning 3 days prior to infection, day 4): > 100 fold and 100- to 1000 fold | reduction of RSV replication (RSV [3]; 1 mg/day lovastatin oral gavage beginning three days prior to infection, vs PBS/gemfibrozil (FIG. 1)): ~100 fold | RSV viral titer in the lung on day 4 (RSV [3]; 1 mg/day lovastatin starting 3 days after RSV infection): 6.3+/−1.1 log10 pfu/gm | inhibition of RSV replication, dose response (RSV [3]; C57BL6 mice, 1 mg/day and 5 mg/day within 0.5 to 20 mg/day dose response): inhibited RSV replication equivalently | peak RSV titer in the lung (RSV [3]): 4.7+/−0.4 log10 pfu/gm | effect on vaccinia replication (vaccinia virus): not effected; also recorded: does not inhibit vaccinia virus replication | peak weight loss 8 days post infection (RSV [4]; 1 mg/day lovastatin 1 day post infection): 22% | peak weight loss 8 days post infection (RSV [4]; 1 mg/day lovastatin 1 day prior to infection): 19% | peak percent weight loss at 8 days post infection (RSV [4]; 1 mg/day lovastatin 3 days after RSV infection): about 30% | peak weight loss 8 days post infection (RSV [4]; 1 mg/day lovastatin 3 days prior to infection): 17% | peak percent weight loss on day 8 post infection (RSV [4]): 19% | RSV-induced illness (RSV [4]; lovastatin treatment, data not shown): reduces RSV-induced illness | weight loss in uninfected mice [5]: no significant weight loss | RSV replication in HEp-2 cells (RSV [6]; 10 μM lovastatin beginning 24 hr prior to RSV infection (moi 0.1), titer for 8 days): completely inhibited | diminution of virus-induced cell-to-cell fusion [7]: greater than 50% | fusion events per well [7]: 75+/−11 fusion events per well | HPIV-3-induced syncytia formation (HPIV-3 [1]; [9]): blocked | HPIV-3 replication (HPIV-3 [2]; [9]): completely blocks | reverse transcriptase activity in H9 cells infected with HIV-1 (HIV-1): decrease in reverse transcriptase activity

C[C@@]1(O)CCOC(=O)C1 [mevalonolactone]
rescue of lovastatin inhibition of RSV replication (RSV [6]; 10 μM lovastatin for 24 hr followed by 20 μM mevalonolactone): can be rescued | rescue of lovastatin inhibition of HPIV-3 syncytia formation (HPIV-3 [1]): rescues the inhibition | rescue of lovastatin inhibition of HPIV-3 replication (HPIV-3 [2]): rescues the inhibition

RhoA77-95: peptide comprising the sequence of amino acids 77-95 of RhoA (TDVILMCFSIDSPDSLENI; UniProt P61586 77-95, looked up, fragment)
HIV infection and syncytia formation (HIV): inhibit both infection and syncytia formation
